Reference: patent US8207176B2 (Glaxo Group Limited, priority 2005, dated 2012)
Where a name gives a salt, the structure may show the parent alone.

Molecular target: T1, Recombinant human p38α (MKK6-activated) (Homo sapiens, UniProt Q16539)
T1 construct: His; made in house
Experiment: Time-resolved fluorescence resonance energy transfer (TR-FRET) kinase assay (standard or low volume)
Assay type: biochemical
Parameters: key: Compounds are considered active in this assay if they demonstrate a pIC50 of greater than 4.6 up to about a pIC50 of greater than 10.0
Settings: MKK6-activated p38α 100 pM, GST-ATF2 400 nM, 120 minutes at room temperature; either assay format
Procedure: It is noted that there are two assay formats shown above for the Fluorescence anisotropy kinase binding assay. The only difference between these two assays is the volume used and the plate type. […] The results described herein may have been performed in either assay format and are not differentiated as to which. […] TR-FRET Assay Time-Resolved Fluorescence Resonance Energy Transfer Kinase Standard Assay Recombinant human p38α was expressed as a His-tagged protein. To activate this protein, 3 μM unactivated p38α was incubated in 200 mM Hepes pH 7.4, 625 mM NaCl, 1 mM DTT with 27 nM active MKK6 (Upstate), 1 mM ATP and 10 mM MgCl2 The activity of the MKK6-activated p38α was assessed using a time-resolved fluorescence resonance energy transfer (TR-FRET) assay. Biotinylated-GST-ATF2 (residues 19-96, 400 nM final), ATP ([…]) and MgCl2 (5 mM final) in assay buffer (40 mM HEPES pH 7.4, 1 mM DTT) were added to wells containing 1 ul of various concentrations of compound or DMSO vehicle (3% final) in NUNC 384 well black plate. The reaction was initiated by the addition of MKK6-activated p38 (100 pM final) to give a total volume of 30 ul. The reaction was incubated for 120 minutes at room temperature, then terminated by the addition of 15 μl of 100 mM EDTA pH 7.4. Detection reagent (15 μl) in buffer (100 mM HEPES pH 7.4, 150 mM NaCl, 0.1% w/v BSA, 1 mM DTT) containing antiphosphothreonine-ATF2-71 polyclonal antibody (Cell Signalling Technology, Beverly Mass., USA) labelled with W-1024 europium chelate (Wallac OY, Turku, Finland), and APC-labelled streptavidin (Prozyme, San Leandro, Calif., USA) was added and the reaction was further incubated for 60 minutes at room temperature. The degree of phosphorylation of GST-ATF2 was measured using a Packard Discovery plate reader (Perkin-Elmer Life Sciences, Pangbourne, UK) as a ratio of specific 665 nm energy transfer signal to reference europium 620 nm signal. Time-Resolved Fluorescence Resonance Energy Transfer Kinase Low Volume Assay Recombinant human p38α was expressed as a His-tagged protein. To activate this protein, 3 μM unactivated p38α was incubated in 200 mM Hepes pH7.4, 625 mM NaCl, 1 mM DTT with 27 nM active MKK6 (Upstate), 1 mM ATP and 10 mM MgCl2 The activity of the MKK6-activated p38α was assessed using a time-resolved fluorescence resonance energy transfer (TR-FRET) assay. Biotinylated-GST-ATF2 (residues 19-96, 400 nM final), ATP (125 μM final) and MgCl2 ([…]) in assay buffer (40 mM HEPES pH 7.4, 1 mM DTT) were added to wells containing 0.1 μl of various concentrations of compound or DMSO vehicle (1.7% final) in Greiner low volume 384 well black plate. The reaction was initiated by the addition of MKK6-activated p38α (100 pM final) to give a total volume of 6 μl. The reaction was incubated for 120 minutes at room temperature, then terminated by the addition of 3 μl of detection reagent in buffer (100 mM HEPES pH 7.4, 150 mM NaCl, 0.1% w/v BSA, 1 mM DTT, 100 mM EDTA) containing antiphosphothreonine-ATF2-71 polyclonal antibody (Cell Signalling Technology, Beverly Mass., USA) labelled with W-1024 europium chelate (Wallac OY, Turku, Finland), and APC-labelled streptavidin (Prozyme, San Leandro, Calif., USA). The reaction was further incubated for 60 minutes at room temperature. The degree of phosphorylation of GST-ATF2 was measured using a BMG Rubystar plate reader (BMG, UK) as a ratio of specific 665 nm energy transfer signal to reference europium 620 nm signal. It is noted that there are two assay formats shown above for the Time-resolved fluorescence resonance energy transfer kinase assay. The only difference between these two assays is the volume used and the plate type. […] The results described herein may have been performed in either assay format and are not differentiated as to which. […] For purposes herein the HTRF assay and the Fluorescence anisotropy kinase binding assay: […]

T1 sequence (Q16539 whole entry): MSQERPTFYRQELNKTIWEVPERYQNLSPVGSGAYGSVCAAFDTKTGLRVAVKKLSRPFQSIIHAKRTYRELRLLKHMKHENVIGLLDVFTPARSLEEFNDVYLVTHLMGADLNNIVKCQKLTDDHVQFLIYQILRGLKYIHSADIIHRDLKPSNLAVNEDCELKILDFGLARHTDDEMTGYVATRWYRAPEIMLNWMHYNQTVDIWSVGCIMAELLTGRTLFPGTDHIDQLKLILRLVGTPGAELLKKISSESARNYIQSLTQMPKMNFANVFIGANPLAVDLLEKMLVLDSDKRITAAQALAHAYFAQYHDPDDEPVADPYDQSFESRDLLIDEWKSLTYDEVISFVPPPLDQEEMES

| Compound | pIC50, reported as active |
| --- | --- |
| CCN(CC)CCCNc1nc(-c2cc(C(=O)NC(C)C)cc(F)c2C)c2ccc(=O)n(-c3c(F)cccc3F)c2n1 [179(c), 3-[2-{[3-(diethylamino)propyl]amino}-8-(2,6-difluorophenyl)-7-oxo-7,8-dihydropyrido[2,3-d]pyrimidin-4-yl]-5-fluoro-4-methyl-N-(1-methylethyl)benzamide] | active |
| Cc1ccc(C(=O)NC(C)C)cc1-c1nc(NCc2ncc[nH]2)nc2c1ccc(=O)n2-c1c(F)cccc1F [Example 74, 3-{8-(2,6-difluorophenyl)-2-[(1H-imidazol-2-ylmethyl)amino]-7-oxo-7,8-dihydropyrido[2,3-d]pyrimidin-4-yl}-4-methyl-N-(1-methylethyl)benzamide] | active |
| Cc1ccc(NC(=O)c2cccs2)cc1-c1nc(NC2CC(C)(C)NC(C)(C)C2)nc2c1ccc(=O)n2-c1c(F)cccc1F [Example 9, N-(3-{8-(2,6-difluorophenyl)-7-oxo-2-[(2,2,6,6-tetramethyl-4-piperidinyl)amino]-7,8-dihydropyrido[2,3-d]pyrimidin-4-yl}-4-methylphenyl)-2-thiophenecarboxamide] | active |
| Cc1ccc(NC(=O)c2ccc(Cl)nc2)cc1-c1nc(N2CCC(N)CC2)nc2c1ccc(=O)n2-c1c(F)cccc1F [Example 15, N-{3-[2-(4-amino-1-piperidinyl)-8-(2,6-difluorophenyl)-7-oxo-7,8-dihydropyrido[2,3-d]pyrimidin-4-yl]-4-methylphenyl}-6-chloro-3-pyridinecarboxamide] | active |
| CCCNC(=O)c1ccc(-c2nc(NCCCN(CC)CC)nc3c2ccc(=O)n3-c2c(F)cccc2F)cc1 [188(b), 4-[2-{[3-(diethylamino)propyl]amino}-8-(2,6-difluorophenyl)-7-oxo-7,8-dihydropyrido[2,3-d]pyrimidin-4-yl]-N-propylbenzamide] | active |
| CCN(CC)CCCNc1nc(-c2cccc(C(=O)NC)c2)c2ccc(=O)n(-c3c(F)cccc3F)c2n1 [193(b), 3-[2-{[3-(diethylamino)propyl]amino}-8-(2,6-difluorophenyl)-7-oxo-7,8-dihydropyrido[2,3-d]pyrimidin-4-yl]-N-methylbenzamide] | active |
| Cc1ccc(NC(=O)c2cccs2)cc1-c1nc(NCc2ncc[nH]2)nc2c1ccc(=O)n2-c1c(F)cccc1F [Example 10, N-(3-{8-(2,6-difluorophenyl)-2-[(1H-imidazol-2-ylmethyl)amino]-7-oxo-7,8-dihydropyrido[2,3-d]pyrimidin-4-yl}-4-methylphenyl)-2-thiophenecarboxamide] | active |
| CCN(CC)CCCNc1nc(-c2cc(C(=O)O)ccc2C)c2ccc(=O)n(-c3c(F)cccc3F)c2n1 [118(a), 3-[2-{[3-(diethylamino)propyl]amino}-8-(2,6-difluorophenyl)-7-oxo-7,8-dihydropyrido[2,3-d]-pyrimidin-4-yl]-4-methylbenzoic acid] | active |
| Cc1ccc(C(=O)NC2CC2)cc1-c1nc(NC(CO)CO)nc2c1ccc(=O)n2-c1c(F)cccc1F [Example 36, N-cyclopropyl-3-(8-(2,6-difluorophenyl)-2-{[2-hydroxy-1-(hydroxymethyl)ethyl]-amino}-7-oxo-7,8-dihydropyrido[2,3-d]pyrimidin-4-yl)-4-methylbenzamide] | active |
| CCN(CC)CCCNc1nc(-c2cc(C(=O)O)cc(F)c2C)c2ccc(=O)n(-c3c(F)cccc3F)c2n1 [179(b), 3-[2-{[3-(diethylamino)propyl]amino}-8-(2,6-difluorophenyl)-7-oxo-7,8-dihydropyrido[2,3-d]pyrimidin-4-yl]-5-fluoro-4-methylbenzoic acid trifluoroacetate] | active |
| Cc1ccc(C(=O)O)cc1-c1nc(N2CCC(N3CCC(C)CC3)CC2)nc2c1ccc(=O)n2-c1c(F)cccc1F [163(b), 3-[8-(2,6-difluorophenyl)-2-(4-methyl-1,4′-bipiperidin-1′-yl)-7-oxo-7,8-dihydropyrido[2,3-d]pyrimidin-4-yl]-4-methylbenzoic acid] | active |
| CCN(CC)CCCNc1nc(-c2cc(C(=O)NC(C)C)ccc2C)c2ccc(=O)n(-c3c(F)cccc3F)c2n1 [118(b), 3-[2-{[3-(diethylamino)propyl]amino}-8-(2,6-difluorophenyl)-7-oxo-7,8-dihydropyrido[2,3-d]pyrimidin-4-yl]-4-methyl-N-(1-methylethyl)benzamide] | active |
| CNC1CCN(c2nc(-c3cc(C(=O)Nc4ccc(F)cc4)ccc3C)c3ccc(=O)n(-c4c(F)cccc4F)c3n2)CC1 [114(b), 3-{8-(2,6-difluorophenyl)-2-[4-(methylamino)-1-piperidinyl]-7-oxo-7,8-dihydropyrido[2,3-d]pyrimidin-4-yl}-N-(4-fluorophenyl)-4-methylbenzamide] | active |
| CCN(CC)CCCNc1nc(-c2cccc(C(=O)O)c2)c2ccc(=O)n(-c3c(F)cccc3F)c2n1 [193(a), 3-[2-{[3-(diethylamino)propyl]amino}-8-(2,6-difluorophenyl)-7-oxo-7,8-dihydropyrido[2,3-d]pyrimidin-4-yl]benzoic acid] | active |

Test system: influx of neutrophils to the lung in LPS-challenged rats
Experiment: Rat LPS neutrophilia model
Assay type: in vivo
Settings: intratracheal, LPS aerosol 100 ug/ml 15 min, lavage 4 hours later, in at least one of the range of conditions tested, significant p<0.05, nonsignificant p>0.05
How it was run: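 Compound was given intratracheally (200 ul, suspension or dry powder) 15 min–24 hours before a 15 min aerosol of LPS (100 ug/ml). Bronchoalveolar lavage was taken 4 hours after challenge for differential cell counts. Values are % inhibition of neutrophils versus no-compound controls at a given concentration and pretreat time.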

| Compound | inhibition of neutrophilia (neutrophil levels in lung lavage relative to no compound controls) |
| --- | --- |
| CCN(CC)CCCNc1nc(-c2cc(C(=O)NC3CC3)cc(F)c2C)c2ccc(=O)n(-c3c(F)cccc3F)c2n1 [Example 185, N-cyclopropyl-3-[2-{[3-(diethylamino)propyl]amino}-8-(2,6-difluorophenyl)-7-oxo-7,8-dihydropyrido[2,3-d]-pyrimidin-4-yl]-5-fluoro-4-methylbenzamide] | statistically nonsignificant inhibition |
| Cc1ccc(C(=O)NCC(F)(F)F)cc1-c1nc(N2CCC(N3CCC(C)CC3)CC2)nc2c1ccc(=O)n2-c1c(F)cccc1F [Example 172, 3-[8-(2,6-difluorophenyl)-2-(4-methyl-1,4′-bipiperidin-1′-yl)-7-oxo-7,8-dihydropyrido[2,3-d]pyrimidin-4-yl]-4-methyl-N-(2,2,2-trifluoroethyl)benzamide] | inactive |
| CCN(CC)CCCNc1nc(-c2cc(C(=O)Nc3ccc(F)cc3)ccc2C)c2ccc(=O)n(-c3c(F)cccc3F)c2n1 [Example 160, 3-[2-{[3-(diethylamino)propyl]amino}-8-(2,6-difluorophenyl)-7-oxo-7,8-dihydropyrido[2,3-d]pyrimidin-4-yl]-N-(4-fluorophenyl)-4-methylbenzamide] | statistically significant inhibition |
